Assay results reported in the METLIN SMRT retention time set (Domingo-Almenara et al. 2019).

test: gradient 5% acetonitrile 3 min, to 50% in 2 min, to 85% in 15 min, held 3 min, 100 µL/min; conditions: column: Zorbax Extend-C18 2.1 x 50 mm; eluents: water / acetonitrile, 0.1% formic acid
In short: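 Standards, all pure, were combined into mixtures of ~100 molecules and run at 100 μL/min on a Zorbax Extend-C18 column (2.1 × 50 mm, 1.8 μm) with water and acetonitrile, each containing 0.1% formic acid. A coupled quadrupole time-of-flight mass spectrometer operated in positive and negative ionization mode. Retention time values come from computationally picked adduct peaks, each inspected manually.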

Row | RP-LC retention time | Compound
1 | 814 s | CCC(C)NC(=O)NC1CCN(C2=NS(=O)(=O)C(c3cccc(Cl)c3)=C2C)CC1 (stereo not drawn)
2 | 999 s | COc1ccc(C(=O)N2CCN(c3cc(C)n4cnnc4n3)CC2)c(OC)c1
3 | 765 s | Cc1[nH]c(C(=O)N2CCC(CC(=O)NCc3ccco3)CC2)c(C)c1C(=O)OC(C)C
4 | 1030 s | O=C(Nc1cc(-c2ccsc2)no1)C1(c2ccccc2)CC1
5 | 641 s | Cc1csc(C(=O)Nc2cccc3ccc(-n4ccnc4)nc23)c1
6 | 578 s | O=C(c1cnn(-c2ccccc2)n1)N1CC(c2nc3ccccc3[nH]2)C1
7 | 1180 s | Cc1ccccc1OCCCC(=O)Nc1nc(-c2ccccc2)cs1
8 | 760 s | O=C(Cc1cccn1-c1ccc(F)cc1)N1CCOCC1
9 | 651 s | Cc1cnc(-c2ccncc2)n1CC1CN(S(=O)(=O)c2ccc3c(c2)CCC3)C1
10 | 1050 s | Cc1ccc2[nH]cc(CCNC(=O)Nc3ccc(Cl)c(Cl)c3)c2c1
11 | 728 s | Cc1cccc(NC(=O)Cn2c(C(C)C)nc3c(c2=O)CCN(Cc2ccccc2)C3)c1
12 | 831 s | O=C(c1cn2ccnc(-c3ccccc3)c2n1)N1CCCC1
13 | 956 s | COc1ccc(NC(=O)C2CCC(=O)N2S(=O)(=O)c2ccc(C)c(C)c2)cc1Cl (stereo not drawn)
14 | 813 s | Cc1c(S(=O)(=O)NCCC2CCN(C(=O)c3ccc(F)cc3)CC2)cnn1C(F)F
15 | 787 s | O=C1NCCc2c(OCC(=O)N3N=C(c4cccs4)CC3c3ccc(F)cc3)cccc21 (stereo not drawn)
16 | 878 s | CCOC(=O)c1cn(Cc2cccc(F)c2)c2nc(C)ccc2c1=O
17 | 834 s | Cc1ccc(S(=O)(=O)N2C[C@H]3CN(C(=O)NCCc4ccccc4)C[C@@H](C2)O3)cc1
18 | 828 s | CCN1c2ccc(C)cc2C(=O)NC12CCN(C(=O)c1ccc(F)cc1)CC2
19 | 870 s | CN1C(=O)c2cccnc2Sc2cc(NC(=O)c3ccc(Cl)s3)ccc21
20 | 684 s | NC(=O)C1CCN(C(=O)Cc2csc(NC(=O)Nc3ccc(Cl)cc3)n2)CC1
21 | 596 s | O=C(NCC1(c2cccs2)CCOCC1)c1nc2ccccc2s1
22 | 930 s | Cc1ccc(C)c(CNC(=O)Cc2csc3nc(-c4ccc(C)c(C)c4)cn23)c1

Row | RP-LC retention time | Compound
23 | 847 s | Cc1ccc(C)c(C(=O)N2CCN(c3cc(-c4cccs4)[nH]n3)CC2)c1
24 | 796 s | COc1ccc(OC)c(NC(=O)Cn2nc(N3CCOCC3)c3ccccc3c2=O)c1
25 | 627 s | CN(C(=O)CN1CCCn2nc(C(=O)O)cc2C1=O)c1ccccc1
26 | 798 s | N#Cc1ccc(C(=O)Nc2cnn(-c3ncc(N4CCCC4)cn3)c2)cc1
27 | 517 s | Cc1cnc(CCNC(=O)Nc2ccc3c(c2)OCCO3)n1C1CCC1
28 | 771 s | O=C(CCn1cnc2cc(-c3noc(-c4ccc(F)cc4)n3)ccc21)N1CCCC1
29 | 733 s | CCCNC(=O)C1CCCN(c2ccc(SCC(=O)Nc3ccc(Cl)cc3F)nn2)C1 (stereo not drawn)
30 | 832 s | O=C(C1CCN(c2ncnc3c2oc2ccccc23)CC1)N1CCN(c2ccccc2F)CC1
31 | 945 s | COC(=O)c1ccc2c(=O)n(-c3cc(F)cc(F)c3)c(N3CCOCC3)nc2c1
32 | 1070 s | Cc1ccc(-n2cc3c(c(C(=O)Nc4ccc5c(c4)OCCO5)c2=O)CC(C)(C)CC3=O)cc1
33 | 595 s | O=C(CCc1c[nH]c2ccccc12)NC1CCN(c2ccc(=O)[nH]n2)C1 (stereo not drawn)
34 | 802 s | Cc1[nH]c(C(=O)N2CCC(CC(=O)NCc3ccccc3)CC2)c(C)c1C(=O)OC(C)C
35 | 648 s | Cc1ccc(NC(=O)N2CCN(CCn3c(C(F)(F)F)nc4cccnc43)CC2)cc1
36 | 614 s | CCC(=O)NCc1nc2c(n1CC)CN(C(=O)c1ccc(C(F)(F)F)cc1)CC2
37 | 873 s | Cc1cc(NC(=O)CN2C(=O)NC(c3ccc(Cl)cc3)C3=C2COC3=O)ccc1Br (stereo not drawn)
38 | 742 s | Cc1cc2c(=O)n(CC(=O)Nc3cccc(Cl)c3)c3cccnc3n2n1
39 | 1260 s | CC1CCCN(S(=O)(=O)c2ccc(C(=O)Nc3nc4c(s3)CCc3ccccc3-4)cc2)C1 (stereo not drawn)
40 | 796 s | O=C(Cn1nc2c(Oc3ccccc3)nccn2c1=O)Nc1ccc(F)cc1Cl
41 | 732 s | Cc1cc(C)cc(NC(=O)C2CCN(S(=O)(=O)c3cn(C)cn3)CC2)c1
42 | 648 s | Cn1nc(C(=O)N2CCCC(C(=O)NC3CC3)C2)c2c1CCN(C(=O)c1ccccc1Cl)C2 (stereo not drawn)
43 | 760 s | O=C(c1nnc(-c2ccc(S(=O)(=O)N3CCCCC3)cc2)o1)N1CCCC1
44 | 590 s | Cn1c(CN2CCN(C(=O)NCc3ccco3)CC2)nc2cc(C(=O)N3CCCC3)ccc21

More lines, now with the values behind:

Row | Compound | RP-LC retention time
45 | CCCn1cc(S(=O)(=O)Nc2ccccc2)c2cccnc21 | 838 s
46 | CCCNC(=O)N1C[C@@H]2CCCN3CCC[C@@H]([C@H]23)[C@H]1CCCC(=O)NCC1CC1 | 576 s
47 | Cc1ccc(-c2nnc(Cc3nc(-c4ccccc4)no3)o2)cc1F | 1050 s
48 | Cc1noc(C)c1Cc1ccc(C(=O)N(C)C2CCc3nnc(C)n3CC2)o1 (stereo not drawn) | 602 s
49 | CCOC(=O)c1cc(OC)c(OC)cc1NC(=O)c1cc(OC)c(OC)c(OC)c1 | 1030 s
50 | O=C(Nc1ccccc1C(F)(F)F)C1CCCN(C(=O)Cc2cccc3ccccc23)C1 (stereo not drawn) | 998 s
51 | Clc1cccc(Cc2nc(-c3ccc4nncn4c3)no2)c1 | 827 s
52 | CSc1ccc(-c2nc3ccc(Cl)cn3c2Nc2ccc(Cl)cc2)cc1 | 993 s
53 | O=P(OC1=CCCCC1)(c1ccccc1)c1ccccc1 | 1030 s
54 | COc1ccc(CNC(=O)CCc2conc2-c2ccc(F)cc2)cc1 | 860 s
55 | COc1ccc(-c2nc(COc3cc(C(F)(F)F)c4c(C)nn(C)c4n3)c(C)o2)cc1OC | 1190 s
56 | CCc1noc(NC(C)=O)c1-c1ccc(OC)c(S(=O)(=O)Nc2cc(Cl)ccc2OC)c1 | 876 s
57 | COCCn1nnnc1C1CC2(CCOCC2)C(=O)N1Cc1ccc(SC)cc1 (stereo not drawn) | 777 s
58 | NC(=NC1C2CC3CC(C2)CC1C3)Nc1ccc(I)cc1 (stereo not drawn) | 887 s
59 | CCc1nnsc1C(=O)Nc1ccc(S(=O)(=O)Nc2onc(C)c2C)cc1 | 759 s
60 | O=C(Cc1nnc(-c2ccc3ncccc3c2)o1)NCCc1ccc(Cl)cc1 | 733 s
61 | CCn1cc(-c2nc(CC(=O)NCc3cccc(Cl)c3)cs2)c2cccnc21 | 903 s
62 | Cc1nnc(NC(=O)CSc2nnc(-c3ccccc3F)o2)s1 | 700 s
63 | CN(C1CCc2nn(CC3CC3)c(=O)n2CC1)S(=O)(=O)c1ccccc1Cl (stereo not drawn) | 796 s
64 | COc1ccc(-c2ncccc2CNS(=O)(=O)Cc2ccccc2F)cc1 | 660 s
65 | CCCN(C)c1nccnc1OC1CCN(Cc2cccnc2)C1 (stereo not drawn) | 594 s
66 | CC(C)n1cc(S(=O)(=O)Nc2ccc(F)cc2)c2cccnc21 | 869 s

Row | Compound | RP-LC retention time
67 | Cc1ccc(C(=O)NCCN2CCCC2)cc1NC(=O)C1=CSCCO1 | 592 s
68 | Cn1c(=O)c2ccn(CC(=O)Nc3cccc(C(F)(F)F)c3)c2n(C)c1=O | 705 s
69 | Cc1nc(Nc2ncc3c(n2)CC(c2ccc(F)cc2)CC3=O)nc2c(C)cccc12 (stereo not drawn) | 746 s
70 | CCOC(=O)c1c(C)c(C(=O)Nc2cc(Cl)ccc2OC)c(C)n1CC | 1180 s
71 | CC1(C)Cc2cccc(OCC(=O)NCCc3ccc(S(N)(=O)=O)cc3)c2O1 | 694 s
72 | Cc1nc2nc(-c3ccccc3)nn2c(C)c1CC(=O)NC(C)C | 700 s
73 | COc1cccc(-c2nnc(Cc3nc(-c4cccc(Cl)c4)no3)o2)c1 | 1090 s
74 | O=S(=O)(c1cccc(F)c1)N1CC(F)(F)C[C@H]1CN1CCc2ccccc2C1 | 733 s
75 | O=C(Cc1cccc2ccccc12)Nc1c(-c2ccccc2)nc2ccccn12 | 708 s
76 | COc1cccc(NS(=O)(=O)c2ccc3c(c2)C(=O)N(C)c2ncccc2O3)c1 | 889 s
77 | COc1ccccc1NS(=O)(=O)c1c[nH]c2ncccc12 | 706 s
78 | O=C(NCC(c1cccnc1)c1c[nH]c2ccccc12)Nc1cccc(F)c1 (stereo not drawn) | 671 s
79 | FC(F)(F)c1cccc(-c2ccc(CNCC3CCNCC3)o2)c1 | 580 s
80 | O=c1ccn(-c2ccc(Cl)cc2)nc1-c1nc(-c2ccc3c(c2)OCO3)no1 | 913 s
81 | Cc1ccc(Nc2c(-c3cc(Br)ccc3F)nc3ccccn23)cc1 | 801 s
82 | CN(C)CCNc1nc(-c2ccc(C(C)(C)C)cc2)nc2ccccc12 | 590 s
83 | O=C(Nc1ccc2c(c1)OCCO2)N1CC2(CCCCC2)CC1COc1ccncc1 (stereo not drawn) | 604 s
84 | CCC(=O)N(C1CCOCC1)C1CCN(S(=O)(=O)c2ccc(C)c(C)c2)CC1 | 869 s
85 | NC(=O)[C@@H]1C[C@@H](O)CN1C1CCN(C(=O)CC2=CCCCC2)CC1 | 575 s
86 | O=C(Cn1nc(C(=O)N2CCCC2)c2ccccc21)N1CCC(N2CCCCC2)CC1 | 581 s
87 | CCn1ccc2c(cc(C(=O)Nc3ccc(OC)cc3)n2C)c1=O | 706 s
88 | NC(=O)C1CCN(C2CC(=O)N(Cc3ccccc3)C2=O)CC1 (stereo not drawn) | 579 s
